According to patent publication US5436231A, “Adenophostins” (Sankyo Company, Limited, priority 1991, dated 1995):

Key:
[1] = system: endoplasmic reticulum (microsome) of rat cerebellum; assay: 45Ca++ releasing activity from the endoplasmic reticulum; format: biochemical; conditions: 1 minute after addition, 30° C., pH 7.2; for calcium ion released of that incorporated into the endoplasmic reticulum: compound at 10 nM
Protocol: (§1) Adenophostins A and B were characterized by their inhibitory activity on [^3 H]-InsP3 binding to rat cerebellar InsP3 receptors, and the ^45 Ca^++ releasing activity from the endoplasmic reticulum, which was prepared from rat cerebellum.
^45 Ca^++ Releasing activity from the endoplasmic reticulum
The ^45 Ca^++ releasing activity from the endoplasmic reticulum was assayed using the method reported by Supattapone et al. [Proc. Natl, Acad. Sci. USA 85, 8747-8750 (1988)] with slight modifications.
The endoplasmic reticulum (microsome) of rat cerebellum was suspended in 10 mM of a HEPES-KOH buffer (pH 7.2) containing 100 mM of potassium chloride, 2.5 mM of magnesium chloride, 1 mM of dithiothreitol (DTT), 10 mM of creatine phosphate, creatine kinase (10 units/ml), 2 μg/ml of oligomycin, 50 μM of calcium chloride containing 1 μCi/ml of ^45 Ca, and 0.12 mM of ethylene glycol bis(2-aminoethyl ether)-N,N,N',N'-tetraacetic acid (EGTA), and the protein concentration in the suspension was adjusted to 0.5 mg/ml. 1 mM of adenosine triphosphate magnesium salt was added to 1 ml of this suspension, and the mixture was incubated for 11 minutes at 30° C. in order to incorporate the ^45 Ca^++ into the endoplasmic reticulum. InsP3, adenophostin A or adenophostin B was then added to release the incorporated ^45 Ca^++ from the endoplasmic reticulum. 10 minutes after the addition of the adenosine triphosphate magnesium salt (1 minute before the addition of the adenophostins or InsP3), and then 12 minutes after the addition of the adenosine triphosphate magnesium salt (1 minute after the addition of the adenophostins or InsP3), 100 μl of the reaction solution was removed, and the sampled solution was filtered through a Milipore filter (HA, […], Product of Milipore) to collect the. endoplasmic reticulum on the filter. The filter was washed with 4 ml of a 10 mM HEPES-KOH buffer (pH 7.2) containing 100 mM of potassium chloride and 1 mM of EGTA, and the radioactivity on the filter was determined by the addition of 5 ml of Pico-flow (a trade name for a product of Packard Co.) agents.

[2] = target: T1, rat cerebellar InsP3 receptors (Rattus norvegicus, UniProt P29994); assay: Inhibitory activity on [3H]-InsP3 binding to InsP3 receptors; conditions: rat cerebellar membrane fraction; 10 nM [3H]-InsP3; 5 minutes, room temperature; pH 8.0; read-out: IC50 (concentration required to inhibit the binding of [3H]-InsP3 by 50%)
T1 construct: A rat cerebellar membrane fraction was homogenized; from tissue; host or cells: rat cerebellum, membrane fraction
T1 sequence (P29994 whole entry): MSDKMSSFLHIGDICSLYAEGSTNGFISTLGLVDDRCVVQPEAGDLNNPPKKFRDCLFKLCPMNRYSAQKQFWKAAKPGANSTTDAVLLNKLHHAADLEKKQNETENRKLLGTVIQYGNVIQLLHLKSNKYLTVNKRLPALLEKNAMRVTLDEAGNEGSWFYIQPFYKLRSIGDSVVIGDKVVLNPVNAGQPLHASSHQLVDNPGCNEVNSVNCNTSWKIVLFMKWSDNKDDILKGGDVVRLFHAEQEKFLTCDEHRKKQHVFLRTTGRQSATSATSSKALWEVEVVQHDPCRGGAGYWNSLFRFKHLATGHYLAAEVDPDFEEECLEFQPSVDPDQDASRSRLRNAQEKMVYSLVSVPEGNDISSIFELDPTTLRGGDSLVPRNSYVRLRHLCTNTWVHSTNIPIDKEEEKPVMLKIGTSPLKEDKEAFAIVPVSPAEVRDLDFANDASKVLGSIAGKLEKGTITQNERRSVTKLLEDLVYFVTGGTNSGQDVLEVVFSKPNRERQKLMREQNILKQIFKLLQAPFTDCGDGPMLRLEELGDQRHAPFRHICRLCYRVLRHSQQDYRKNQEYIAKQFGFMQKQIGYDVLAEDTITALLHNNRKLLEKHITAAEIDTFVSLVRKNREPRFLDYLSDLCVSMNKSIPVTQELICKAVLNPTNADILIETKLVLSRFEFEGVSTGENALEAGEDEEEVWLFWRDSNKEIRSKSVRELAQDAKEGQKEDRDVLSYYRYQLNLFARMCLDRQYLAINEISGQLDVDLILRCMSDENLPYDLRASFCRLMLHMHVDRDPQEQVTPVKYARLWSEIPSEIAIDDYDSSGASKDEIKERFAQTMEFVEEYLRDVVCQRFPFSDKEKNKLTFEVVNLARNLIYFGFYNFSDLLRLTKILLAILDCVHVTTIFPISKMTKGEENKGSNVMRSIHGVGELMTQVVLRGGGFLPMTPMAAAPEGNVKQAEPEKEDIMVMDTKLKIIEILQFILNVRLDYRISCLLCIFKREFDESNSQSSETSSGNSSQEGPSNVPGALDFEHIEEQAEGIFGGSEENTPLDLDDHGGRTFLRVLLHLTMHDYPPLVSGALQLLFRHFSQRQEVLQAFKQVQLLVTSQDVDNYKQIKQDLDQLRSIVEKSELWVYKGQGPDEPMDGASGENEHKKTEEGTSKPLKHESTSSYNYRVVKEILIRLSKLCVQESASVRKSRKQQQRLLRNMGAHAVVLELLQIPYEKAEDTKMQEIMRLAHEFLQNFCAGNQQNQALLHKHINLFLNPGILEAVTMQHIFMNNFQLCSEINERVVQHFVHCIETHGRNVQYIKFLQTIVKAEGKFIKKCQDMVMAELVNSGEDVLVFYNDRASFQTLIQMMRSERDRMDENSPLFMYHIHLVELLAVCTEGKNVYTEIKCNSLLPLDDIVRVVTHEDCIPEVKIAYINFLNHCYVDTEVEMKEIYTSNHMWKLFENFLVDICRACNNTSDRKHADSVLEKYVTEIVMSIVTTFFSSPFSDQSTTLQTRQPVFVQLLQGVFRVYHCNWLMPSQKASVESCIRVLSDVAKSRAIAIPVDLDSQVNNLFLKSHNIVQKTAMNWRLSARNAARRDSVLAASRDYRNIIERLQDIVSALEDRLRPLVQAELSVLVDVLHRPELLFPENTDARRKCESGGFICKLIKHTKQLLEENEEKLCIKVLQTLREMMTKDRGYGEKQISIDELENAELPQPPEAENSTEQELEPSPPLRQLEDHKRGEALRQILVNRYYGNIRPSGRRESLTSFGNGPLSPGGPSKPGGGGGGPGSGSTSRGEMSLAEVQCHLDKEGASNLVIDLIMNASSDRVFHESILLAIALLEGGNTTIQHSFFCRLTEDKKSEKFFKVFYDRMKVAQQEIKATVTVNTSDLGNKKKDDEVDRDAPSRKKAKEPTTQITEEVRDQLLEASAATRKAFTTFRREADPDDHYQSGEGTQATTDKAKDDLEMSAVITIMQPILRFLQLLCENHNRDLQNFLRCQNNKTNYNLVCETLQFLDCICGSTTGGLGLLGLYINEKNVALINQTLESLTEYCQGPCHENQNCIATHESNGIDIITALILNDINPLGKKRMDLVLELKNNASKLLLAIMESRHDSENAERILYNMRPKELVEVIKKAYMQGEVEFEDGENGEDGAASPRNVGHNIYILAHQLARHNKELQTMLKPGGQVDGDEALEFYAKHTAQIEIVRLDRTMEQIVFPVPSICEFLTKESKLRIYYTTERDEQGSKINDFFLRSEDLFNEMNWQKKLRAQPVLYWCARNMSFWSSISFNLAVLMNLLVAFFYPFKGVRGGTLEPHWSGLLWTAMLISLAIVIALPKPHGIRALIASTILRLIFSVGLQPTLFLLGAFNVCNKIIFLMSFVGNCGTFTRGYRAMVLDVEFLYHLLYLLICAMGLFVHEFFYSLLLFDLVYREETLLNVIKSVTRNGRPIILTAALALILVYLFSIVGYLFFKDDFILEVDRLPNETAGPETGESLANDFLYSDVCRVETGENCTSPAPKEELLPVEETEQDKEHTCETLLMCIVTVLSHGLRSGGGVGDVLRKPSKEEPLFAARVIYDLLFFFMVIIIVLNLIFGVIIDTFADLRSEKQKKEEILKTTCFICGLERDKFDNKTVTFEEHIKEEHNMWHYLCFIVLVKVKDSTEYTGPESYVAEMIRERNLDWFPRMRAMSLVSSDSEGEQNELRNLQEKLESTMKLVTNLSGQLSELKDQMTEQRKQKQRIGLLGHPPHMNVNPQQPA
Protocol: as §1
Inhibitory activity on [^3 -H]-InSP3 binding to InsP3 receptors
The inhibitory activity of [^3 H]-InsP3 binding was assayed according to the method of Worley et al. [J. Biol. Chem. 262, 12132-12136 (1987)].
A rat cerebellar membrane fraction was homogenized in 50 mM of Tris-HC1 (pH 8.0) and 1 mM of ethylenediaminetetraacetic acid, and the protein concentration in the homogenized material was adjusted to 0.6 mg/ml. 1 ml of this cerebellar homogenate was taken and 10 nM of [^3 H]-InsP3and either adenophostin A or adenophostin B were added to it. The mixture was incubated for 5 minutes at room temperature, and then centrifuged for 5 minutes at 12,000 rpm at a temperature of 4° C. The supernatant was removed and the precipitated cerebellar membrane fraction was dissolved in 5 ml of Pico-flow (a trade name for a product of Packard Co.) to determine its radioactivity. The bound [^3 H]-InsP3 was then determined.
IC50 indicates the concentration required to inhibit the binding of [^3 H]-InsP3 by 50%.

Solubility = format: physicochemical; conditions: for Solubility in lower alcohols: such as methanol or ethanol

Row | SMILES | calcium ion released of that incorporated into the endoplasmic reticulum (adenophostin activities at 10 nM stated equal to that of InsP3) ([1]; InsP3 at 10 μM) [%] | IC50 [2] [nM] | calcium ion released of that incorporated into the endoplasmic reticulum [1] [%] | Solubility in acetone, ethyl acetate or chloroform (Solubility) | Solubility in lower alcohols (Solubility) | Solubility in water and dimethyl sulfoxide (Solubility)
1 | O=P(O)(O)O[C@@H]1[C@H](O)[C@H](O)[C@@H](OP(=O)(O)O)[C@H](OP(=O)(O)O)[C@H]1O [InsP3, inositol 1,4,5-trisphosphate, reference compound] | 35 |  |  |  |  | 
2 | Nc1ncnc2c1ncn2[C@@H]1O[C@H](CO)[C@@H](O[C@H]2O[C@H](CO)[C@@H](OP(=O)(O)O)[C@H](OP(=O)(O)O)[C@H]2O)[C@H]1OP(=O)(O)O [adenophostin A] |  | 6 | 35 | insoluble | slightly soluble | Soluble
3 | CC(=O)OC[C@H]1O[C@H](O[C@H]2[C@@H](OP(=O)(O)O)[C@H](n3cnc4c(N)ncnc43)O[C@@H]2CO)[C@H](O)[C@@H](OP(=O)(O)O)[C@@H]1OP(=O)(O)O [adenophostin B] |  | 8 | 35 | insoluble | slightly soluble | Soluble
